Literature values, collected in US20210361561A1, “A pouch product suitable for application in an oral cavity” (priority 2019, published 2021).

Columns and labels:
[1] = biological target: CB1 receptors (Homo sapiens, UniProt P21554)
[2] = biological target: CB2 receptors (Homo sapiens, UniProt P34972); settings: compared with CB1 receptors
Chain of CB2 receptors (P34972 whole entry): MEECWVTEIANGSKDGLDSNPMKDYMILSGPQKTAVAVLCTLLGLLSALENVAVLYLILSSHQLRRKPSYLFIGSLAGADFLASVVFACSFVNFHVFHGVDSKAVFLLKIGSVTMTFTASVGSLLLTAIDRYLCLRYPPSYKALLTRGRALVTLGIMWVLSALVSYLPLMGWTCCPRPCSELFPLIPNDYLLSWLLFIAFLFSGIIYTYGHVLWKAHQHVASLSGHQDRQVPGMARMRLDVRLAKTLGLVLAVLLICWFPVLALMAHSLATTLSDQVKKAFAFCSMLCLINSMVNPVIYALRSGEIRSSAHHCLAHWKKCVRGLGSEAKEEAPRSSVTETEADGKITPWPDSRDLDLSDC

Chain of CB1 receptors (P21554 whole entry): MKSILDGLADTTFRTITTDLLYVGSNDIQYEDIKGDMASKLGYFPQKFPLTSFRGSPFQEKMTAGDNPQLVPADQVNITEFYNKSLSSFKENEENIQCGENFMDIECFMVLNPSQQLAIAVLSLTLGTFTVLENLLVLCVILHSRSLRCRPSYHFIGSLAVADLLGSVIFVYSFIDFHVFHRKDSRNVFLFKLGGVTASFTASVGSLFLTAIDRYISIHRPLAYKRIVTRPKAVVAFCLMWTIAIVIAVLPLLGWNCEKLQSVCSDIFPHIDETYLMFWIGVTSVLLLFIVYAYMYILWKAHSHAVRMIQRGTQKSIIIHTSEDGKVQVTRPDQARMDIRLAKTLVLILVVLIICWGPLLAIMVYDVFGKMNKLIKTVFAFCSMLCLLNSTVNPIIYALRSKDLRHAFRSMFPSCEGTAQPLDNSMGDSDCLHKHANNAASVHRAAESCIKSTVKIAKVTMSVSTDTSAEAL

Q: Which “activity at the CB1 receptors” value [1] does the source give for `CCCCCc1cc(O)c2c(c1)OC(C)(C)c1ccc(C)cc1-2` [CBN, 6,6,9-Trimethyl-3-pentyl-benzo[c]chromen-1-ol] here?
A: Its value is “partial agonist”.

Q: And the “affinities relative to THC” value ([1]; CB1 and CB2 receptors)?
A: Its value is “lower affinities relative to THC”.

Q: What about the “affinity to CB2 receptors” value [2] of the same molecule?
A: Its value is “higher affinity”.
